Patent US20250275948A1, “(N-[4-(2,3-DIHYDRO-1H-INDEN-5-YL)-1,3-THIAZOL-2-YL]-2-[4-METHYL-4-(NAPHTHALEN-2-YL)-2,5-DIOXOIMIDAZOLIDIN-1-YL]ACETAMIDE AS STABILIZER OF CLOCK:BMAL1 INTERACTION FOR THE TREATMENT OF CIRCADIAN RHYTHM DISEASES AND DISORDERS” (KOC UNIVERSITESI, priority 2022, published 2025)

What was measured:
[1] = tested on: NIH 3T3 Bmal1-dLuc and U2OS Bmal1-dLuc cells; assay: Real-time monitoring of circadian oscillation; assay type: cell-based
Procedure: NIH 3T3 Bmal1-dLuc and U2OS Bmal1-dLuc cells were used for real-time monitoring of circadian oscillation. While LumiCycle 32 (Actimetrics, USA) was used for recording the luminescence signals of NIH 3T3 Bmal1-dLuc cells, Synergy H1 (BioTek, USA) was used for recording the luminescence signals of U2OS Bmal1-dLuc cells. NIH 3T3 Bmal1-dLuc cells were plated in 35 mm cell culture dish at density of 45×10^4 cell/plate and incubated overnight at 37° C. under 5% CO2. The next day, cell medium was replaced with 0.1 μM Dexamethasone (Sigma D-8893) containing DMEM to synchronize the cells. After 2 hours incubation, cell media was exchanged with appropriate amount of CLK95 containing recording medium (10 g low glucose DMEM powder (Sigma D2902), 3.5 mg/mL D(+) glucose powder (Sigma G7021), 0.35 mg/mL sodium bicarbonate (Sigma S5761), 10 mM HEPES (Gibco 15630106), 5% FBS (Gibco, 16000044), 1% NEAA (Multicell 321-011-EL), 25 U/mL streptomycin-penicillin (Gibco 15140-122) which was supplemented with 0.1 mM Luciferin. Then plates were sealed with silicone grease to prevent evaporation and immediately placed in LumiCycle. This instrument continuously recorded the luminescence for each plate for 5-7 days with 10 minutes intervals at 37° C. LumiCycle Analysis software (Actimetrics) was used to analyse the changes in circadian rhythm. The data of the first day was excluded from analysis due to transient deviations caused after medium change.
For the experiments that were performed using Synergy-H1, U2OS Bmal1-dLuc cells were plated as triplicates into an opaque 96-well plate (5×10^4 cell/well). After synchronizing and treating the cells with CLK95, opaque 96-well plate was sealed with an optically clear film and placed under Synergy-H1 instrument. Luminescence signals were recorded for 5-7 days with 24 minutes intervals at 32° C.

[2] = tested on: CLOCK:BMAL1 interaction; assay: Co-immunoprecipitation (Co-IP) of CLOCK with FLAG-BMAL1; assay type: biochemical
Procedure: To investigate the binding sites of the CLK95 on CLOCK and BMAL1, promising residues which were computationally determined to interact with small molecule were mutated via site-directed mutagenesis. […] These amino acid residues were introduced to Bmal1 and CLOCK genes by PCR based mutagenesis. FLAG-tagged pcDNA4a-Bmal1 and […] were used as template DNAs. Each PCR reaction consisted of 50 ng of template DNA, 0.2 μM primer pair, 0.2 mM dNTPs and 3 units of Pfu DNA polymerase. Then the PCR reaction was performed under these conditions: 5 minutes at 98° C. followed by 12 cycles of 1 minute at 98° C., 1 minute at 55° C. and 15 minutes at 72° C. The PCR reaction completed with a final extension step at 72° C. for 15 minutes. PCR products were analysed with 0.8% of agarose. Bands at the right size were further treated with 1 μL FastDigest Dpn I (Thermo Scientific, FD1704) for 1 hour at 37° C. to digest methylated-parental DNA. Subsequently, DH5a (a strain of E. coli) cells were transformed with the 7 μL PCR product. Standard heat-shock transformation protocol was used. Transformed cells were plated on Ampicillin (100 μg/mL) containing Luria-Bertani (LB) agar plates and incubated overnight at 37° C. Later, colonies formed on the LB ager plate were selected to culture in 5 mL LB broth containing Ampicillin (100 μg/mL). After overnight incubation at 37° C., cells were harvested and plasmid isolation was performed with Macherey Nagel's NucleoSpin Plasmid (NoLid), Mini kit. Isolated plasmids were then sent for Sanger sequencing (Macrogen) to confirm desired single-site mutation.
To assess the effect CLK95 on BMAL1-CLOCK interaction Co-IP was employed. HEK 293T cell were transfected with FLAG-tagged pcDNA4a-Bmal1 or pCMV-Sport6-CLOCK plasmids. The FLAG-tagged pcDNA4a-Bmal1-R126A and pCMV-Sport6-CLOCK-F80A-K220A mutants were used in this assay. […] The protein concentration of each lysate was determined with the Pierce™ 660 nm Protein assay (Thermo Scientific, 22660). […]

[3] = tested on: CLOCK and BMAL1; assay: Effect on core clock protein levels (western blot), U2OS Bmal1-dLuc cells; assay type: cell-based, human; settings: unsynchronized U2OS Bmal1:dLuc cells, 24 hours
Procedure: The effect of CLK95 on core-clock proteins was assessed both on synchronized and unsynchronized U2OS Bmal1-dLuc cells. Cells were seeded into 6 well-plates with a density of 45×10^4 cell/well and incubated at 37° C. under 5% CO2 for 16 hours. For unsynchronized cells, they were treated with appropriate amounts CLK95 (final 0.25% DMSO) and further incubated for 24 hours. For synchronized cells, cell media was exchanged with 0.1 μM Dexamethasone containing DMEM. After synchronization, cells were subjected to the CLK95 (final 0.25% DMSO). After 24 hours of incubation, cells were harvested with 6 hours intervals for 7 time points (24H-60H). Then harvested cells were lysed with 90 μL RIPA buffer (50 mM Tris-HCl pH 7.4, 150 mM NaCl, 1% Triton x-100, 0.1% SDS, 1×PIC) and left for an incubation on ice for 30 minutes. Following, samples were centrifugated at 15000×g for 20 minutes at 4° C. After boiling samples with Laemmli buffer for 7 minutes at 95° C., 10 μg of protein was loaded for each sample to 10% SDS-polyacrylamide gel. For Western blot analysis following antibodies used to determine the level of core clock proteins: anti-CLOCK (Bethyl, A302-618A), anti-BMAL1 (Santa Cruz Biotech., SC-365645), anti-PER2 (Proteintech, 67513-1-Ig), anti-CRY1 (Bethyl, A302-614A), and anti-β-Actin (Cell Signaling, 8H10D10) antibodies.

[4] = NIH3T3 Bmal1-dLuc (Lumicycle) and U2OS Bmal1-dLuc (Synergy H1) cells

- residue needed for binding to CLOCK:BMAL1 complex ([2]; R126A mutant Co-IP): Arg126 of BMAL1 is essential
SMILES: CC1(c2ccc3ccccc3c2)NC(=O)N(CC(=O)Nc2nc(-c3ccc4c(c3)CCC4)cs2)C1=O (centres unmarked) [CLK95]
- effect on circadian rhythm ([1]; Bmal1-dLuc U2OS cells): destroying the circadian rhythm
- effect on circadian amplitude [1, 4]: decreases the amplitude
- effect on circadian period [1, 4]: increases the period
- effect of higher doses on endogenous clock ([1]; higher doses): completely suppress the endogenous clock
- stability of CLOCK-BMAL1 [2]: increasing the stability of CLOCK-BMAL1
- interaction between CLOCK and BMAL1 ([2]; Co-IP, HEK 293T lysates): increasing the interaction between CLOCK and BMAL1
- CLOCK and BMAL1 protein levels [3]: increased
